{"source": "patent US12409155B1", "about": "“Ready to use LET formulations” (QuVa Pharma, Inc., priority 2021, dated 2025)", "origin": "cited, not measured here", "details": "Handbook"}
{"smiles": "O=C(O)CC(O)(CC(=O)O)C(=O)O", "note": "[citric acid]", "values": [{"measurement": "pKa2", "value": 4.76}]}
